This passage reports MIC results from ChEMBL document CHEMBL3044649, “Zn(OTf)2-catalyzed three component, one-pot cyclocondensation reaction of some new octahydroquinazolinone derivatives and access their bio-potential” (2012).

Holding throughout (assay type): functional
The subject of one assay is Escherichia coli. As to the kind of experiment: Antimicrobial activity against Escherichia coli MTCC 443 after 24 to 48 hr by broth microdilution method. On the technique in general: Broth dilution looks for growth in wells or tubes with falling amounts of substance.
For the next assay, the system named is Vibrio cholerae. As to the kind of experiment: Antimicrobial activity against Vibrio cholerae MTCC 3906 after 24 to 48 hr by broth microdilution method.
The test system of a further assay is Aspergillus fumigatus. The assay is described as follows: Antimicrobial activity against Aspergillus fumigatus MTCC 3008 after 24 to 48 hr by broth microdilution method.
A further assay concerns Streptococcus pneumoniae. The assay is described as follows: Antimicrobial activity against Streptococcus pneumoniae MTCC 1936 after 24 to 48 hr by broth microdilution method.
Another assay relates to Bacillus subtilis. The assay is described as follows: Antimicrobial activity against Bacillus subtilis MTCC 441 after 24 to 48 hr by broth microdilution method.
The test system of the next assay is Clostridium tetani. The assay is described as follows: Antimicrobial activity against Clostridium tetani MTCC 449 after 24 to 48 hr by broth microdilution method.
A further assay deals with Salmonella typhi. As to the kind of experiment: Antimicrobial activity against Salmonella enterica subsp. enterica serovar Typhi MTCC 98 after 24 to 48 hr by broth microdilution method.
The next assay relates to Candida albicans. As to the kind of experiment: Antimicrobial activity against Candida albicans MTCC 227 after 24 to 48 hr by broth microdilution method.

≈ marks a conversion by molar mass, not a printed value.

On to `O=C1NC2=C(C(=O)CCC2)C(c2cc3ccccc3[nH]c2=O)N1` (centres undefined), for which the minimum inhibitory concentration (MIC) (usually the least concentration at which growth counts as inhibited) against Escherichia coli was 250 µg/mL (≈ 808 µM); in the assay on Vibrio cholerae, 500 µg/mL (≈ 1620 µM); against Aspergillus fumigatus it was above 1000 µg/mL; in the assay on Streptococcus pneumoniae, 100 µg/mL (≈ 323 µM); with Bacillus subtilis, 200 µg/mL (≈ 647 µM); in the assay on Clostridium tetani, 100 µg/mL (≈ 323 µM). Further, the minimal inhibitory concentration (MIC) amounted to 250 µg/mL (≈ 808 µM) in the assay on Salmonella typhi and 500 µg/mL (≈ 1620 µM) in the assay on Candida albicans.

Consider `Cc1ccc2[nH]c(=O)c(C3NC(=S)NC4=C3C(=O)CC(C)(C)C4)cc2c1` (centres undefined), for which the minimum inhibitory concentration (MIC) against Escherichia coli is 250 µg/mL (≈ 680 µM); against Vibrio cholerae it was 100 µg/mL (≈ 272 µM); against Aspergillus fumigatus, above 1000 µg/mL; against Streptococcus pneumoniae, 100 µg/mL (≈ 272 µM); in the assay on Bacillus subtilis, 100 µg/mL (≈ 272 µM); against Clostridium tetani it was 100 µg/mL (≈ 272 µM). The MIC is 150 µg/mL (≈ 408 µM) in the assay with Salmonella typhi and above 1000 µg/mL against Candida albicans.

Turning to `CC1(C)CC(=O)C2=C(C1)NC(=S)NC2c1cc2cc(Cl)ccc2[nH]c1=O` (centres undefined), the MIC against Escherichia coli was determined as 125 µg/mL (≈ 322 µM); against Vibrio cholerae, 50 µg/mL (≈ 129 µM); in the assay on Aspergillus fumigatus, 1000 µg/mL (≈ 2580 µM); against Streptococcus pneumoniae, 50 µg/mL (≈ 129 µM); in the assay on Bacillus subtilis, 50 µg/mL (≈ 129 µM); against Clostridium tetani, 250 µg/mL (≈ 645 µM). The figures for the MIC with Salmonella typhi and against Candida albicans were 25 µg/mL (≈ 64.5 µM) and 500 µg/mL (≈ 1290 µM), respectively.
